# Test results from US20060167083A1, “Therapeutic methods and compositions involving isoflav-3-ene and isoflavan structures” (priority 2002, published 2006).
# Columns and labels:
# human topo II = molecular target: T1, human topo II (Homo sapiens, UniProt P11388); experiment: Topo II-mediated P4 unknotting assay; type: biochemical
# T1 construct: purchased Topogen (Columbus, Ohio)
# Method: FIG. 1 represents an unknotting assay for determining the effect of dehydroequol on topo II catalytic activity. Substrate P4 DNA was incubated with two units of purified topo II in the absence (lane 1) or presence of 100, 80, 60, 40, 20, and 10 μg/ml dehydroequol (lanes 3-8). Lane 2, 10 μg/ml VP-16 (positive control). Topo II activity was determined by converting knotted P4 DNA (K) to the unknotted (U) form.
# The stepwise removal of DNA knots (unknotting) requires transient double-strand breakage followed by strand passage and relegation. Type II topoisomerases uniquely catalyse this reaction. […] DNA from a mutant bacteriophage (P4 Virl del1O) is used as a reaction substrate that migrates as a smear (due to the variable number of knots). In the presence of topo II, topological DNA knots are removed, and the reaction product (unknotted DNA) migrates as a single band. Complete inhibition was evident at 100 μg/ml dehydroequol. It was determined from densitometric measurements of the unknotted band that 50% inhibition (IC50) was at about 20 μg/ml dehydroequol.
# To determine topoisomerase (topo) II catalytic activity, knotted DNA that had been isolated from the tailless capsids of the bacteriophage P4 Virl del1O was used as the substrate. Reaction mixtures contained 50 mM Tris-HCl, pH 8.0, 120 mM KCl, 10 mM MgCl2, 0.5 mM ATP, and 0.5 mM dithiothreitol. The topo II inhibitor was added prior to the addition of 2 units of human topo II. Reactions (20 μl final volume) were initiated by adding 0.6 μg of knotted DNA and carried out at 37° C. for 30 min. […] For the quantitative determination of topo II activity, photographic negatives were densitometrically scanned. Unknotted DNA, migrating as a single band at the top of the gel, was measured in this manner. The concentration of the inhibitor preventing 50% of the substrate (knotted DNA) from being converted into the reaction product (unknotted DNA) was determined from a standard curve. By averaging three to four such experiments, the IC50 values were determined.
# tNOX = molecular target: T2, tNOX (Homo sapiens, UniProt Q16206); experiment: tNOX inhibition, 96-well plate assay with HeLa in dithiodipyridine substrate; type: cell-based; settings: 10 μm
# T2 construct: endogenous in cells; host or cells: HeLa (human cervical carcinoma)
# From the text: A 96-well plate assay was used containing human cervical carcinoma (HeLa) in a dithiodipyridine substrate.
# leukaemic cell line HL60 = experiment: Anti-proliferative effect on HL60; type: cell-based; settings: Homo sapiens, HL-60
# breast cancer line MCF7 = experiment: Anti-proliferative effect on MCF7; type: cell-based; settings: Homo sapiens
# colon cancer line HT29 = experiment: Anti-proliferative effect on HT29; type: cell-based; settings: Homo sapiens, HT-29
# prostate cancer line PC3 = experiment: Anti-proliferative effect on PC3; type: cell-based; settings: Homo sapiens, PC-3
# [1] = test system: Ras transformed NIH 3T3 cells; experiment: Focus formation assay; type: cell-based; settings: 10 μg/ml, 3 weeks
# Method: (§1) Focus formation assay: Low passage NIH 3T3 cells were transfected with either human ras gene (Ras) or empty vector (Vect) control^19. Two days later the transfected cells were seeded in 6 well plates. After reaching confluence, the cells were cultured in the vehicle DMSO or De (10 μg/ml final) for 3 weeks with media change every 3-4 days (±De). Foci were scored after staining with 0.5% crystal violet. One experiment of two performed is shown.
# normal NIH 3T3 cells = experiment: Viability of normal NIH 3T3 cells in focus formation assay; type: cell-based; settings: 10 μg/ml, 3 weeks
# Method: as §1
# [2] = test system: Human umbilical vein endothelial cells (HUVEC); experiment: Endothelial cell proliferation assay (MTT); type: cell-based
# Method: Cells: Human umbilical vein endothelial cells (HUVEC) were prepared and grown as previously described^30. The cells were used between passages 2 and 6 for all experiments. The human prostatic adenocarcinoma cell line, LNCaP was obtained from American Tissue Type Collection and maintained according to the instructions of the supplier.
# Proliferation assay: HUVEC were seeded at 3×10^3 cells per gelatin-coated microtitre well and grown in complete medium for 3 days. Dehydroequol (De) was added 3 hours after plating. Proliferation was measured using the MTT assay (Promega, Wis., USA) and is given as the rate of proliferation over the 3 days±SEM of quadruplicate determinations for each group. Proliferation of LNCaP cells was determined using the MTT assay. Cells were seeded at 2.5×10^3 cells per microtitre well. De was added 4 days after plating and assayed after a further 5 days of growth. Cell viability is expressed as a percentage of control untreated cells.
# [3] = test system: Human umbilical vein endothelial cells (HUVEC); experiment: Endothelial cell migration (wound) assay; type: cell-based
# Method: Migration assay: HUVEC were plated at 5×10^5 cells per gelatin-coated 6 well dish and grown to confluence over 48 hours. Wounds were made in the monolayer, cells washed 3 times and fresh complete media with or without De (10 μg/ml final concentration) added. Migration was viewed over the following 18-72 hours.
# [4] = test system: Human umbilical vein endothelial cells (HUVEC); experiment: In vitro capillary tube formation assay in collagen gel; type: cell-based; settings: 10 μg/ml, PMA and RMACII present
# Method: In vitro tube assay: Capillary tube formation in a collagen gel was performed essentially as described by Gamble et al^30,31. Tubes were formed in the presence of the tumour promoter phorbol myristate acetate (PMA) and the anti β1 integrin antibody RMACII. De (10 μg/ml final) was added at the time of plating the cells onto the gel.
# PECAM-1 = PECAM-1 expression on EC, flow cytometric analysis; type: cell-based; settings: after De treatment, data not shown
# Sphingosine Kinase (SK) = experiment: Sphingosine kinase activity assay in endothelial cells; type: cell-based, human
# Method: Sphingosine Kinase activity assay: SK activity was measured in vitro by incubating the cytosolic fraction with 10 μM sphingosine-BSA complex and [γ^32P]ATP (1 mM, 0.5 mCi/ml) for 15 minutes at 37° C., as previously described^42. Stimulation was with TNFα (1 ng/ml) (rhTNF-α; R & D Systems, Minneapolis Minn. USA), PMA (100 ng/ml) and IL-1β (100 units/ml) (hrIL-1β; Immunex, Seattle Wa. USA) for 10 minutes. Cells were treated with De or DMSO vehicle as control for 18 hours prior to stimulation.
# T1 sequence (P11388 whole entry): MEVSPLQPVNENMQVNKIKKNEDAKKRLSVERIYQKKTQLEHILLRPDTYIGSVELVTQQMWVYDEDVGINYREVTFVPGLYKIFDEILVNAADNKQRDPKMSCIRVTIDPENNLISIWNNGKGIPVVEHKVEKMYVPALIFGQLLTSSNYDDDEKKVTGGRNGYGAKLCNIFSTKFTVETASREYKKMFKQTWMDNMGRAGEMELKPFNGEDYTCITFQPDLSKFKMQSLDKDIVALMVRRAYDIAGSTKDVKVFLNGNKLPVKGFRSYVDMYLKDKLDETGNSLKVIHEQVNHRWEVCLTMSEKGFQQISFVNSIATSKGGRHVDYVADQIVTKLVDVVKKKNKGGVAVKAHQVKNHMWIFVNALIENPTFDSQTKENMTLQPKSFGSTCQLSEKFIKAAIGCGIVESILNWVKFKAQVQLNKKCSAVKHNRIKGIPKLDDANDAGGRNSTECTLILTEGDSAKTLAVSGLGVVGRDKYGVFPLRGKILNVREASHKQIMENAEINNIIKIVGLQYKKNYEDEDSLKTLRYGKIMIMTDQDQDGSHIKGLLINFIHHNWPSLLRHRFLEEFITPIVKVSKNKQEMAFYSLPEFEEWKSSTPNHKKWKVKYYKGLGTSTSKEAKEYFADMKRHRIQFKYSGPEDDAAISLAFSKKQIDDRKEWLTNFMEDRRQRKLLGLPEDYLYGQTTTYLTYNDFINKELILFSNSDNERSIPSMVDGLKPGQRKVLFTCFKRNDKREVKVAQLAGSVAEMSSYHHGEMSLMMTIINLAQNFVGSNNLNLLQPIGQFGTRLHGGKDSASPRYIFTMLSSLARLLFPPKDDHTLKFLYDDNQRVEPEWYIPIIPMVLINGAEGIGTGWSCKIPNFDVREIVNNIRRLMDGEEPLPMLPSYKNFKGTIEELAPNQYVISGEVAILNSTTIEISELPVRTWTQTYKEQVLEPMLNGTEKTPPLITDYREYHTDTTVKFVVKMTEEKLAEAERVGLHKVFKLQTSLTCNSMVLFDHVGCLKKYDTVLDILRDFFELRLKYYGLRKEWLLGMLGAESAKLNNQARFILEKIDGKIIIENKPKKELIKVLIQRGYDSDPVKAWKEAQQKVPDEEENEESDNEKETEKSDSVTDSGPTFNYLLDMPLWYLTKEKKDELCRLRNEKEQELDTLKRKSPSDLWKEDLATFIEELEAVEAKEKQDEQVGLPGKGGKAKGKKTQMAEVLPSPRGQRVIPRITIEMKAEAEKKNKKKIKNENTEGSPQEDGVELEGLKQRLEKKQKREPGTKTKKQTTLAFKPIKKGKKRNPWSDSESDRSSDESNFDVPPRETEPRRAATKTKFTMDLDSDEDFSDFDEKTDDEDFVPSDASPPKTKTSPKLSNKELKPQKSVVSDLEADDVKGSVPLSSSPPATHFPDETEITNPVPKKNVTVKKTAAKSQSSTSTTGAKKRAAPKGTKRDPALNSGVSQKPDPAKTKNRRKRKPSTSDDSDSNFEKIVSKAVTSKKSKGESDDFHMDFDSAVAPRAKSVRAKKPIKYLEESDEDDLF
# T2 sequence (Q16206 whole entry): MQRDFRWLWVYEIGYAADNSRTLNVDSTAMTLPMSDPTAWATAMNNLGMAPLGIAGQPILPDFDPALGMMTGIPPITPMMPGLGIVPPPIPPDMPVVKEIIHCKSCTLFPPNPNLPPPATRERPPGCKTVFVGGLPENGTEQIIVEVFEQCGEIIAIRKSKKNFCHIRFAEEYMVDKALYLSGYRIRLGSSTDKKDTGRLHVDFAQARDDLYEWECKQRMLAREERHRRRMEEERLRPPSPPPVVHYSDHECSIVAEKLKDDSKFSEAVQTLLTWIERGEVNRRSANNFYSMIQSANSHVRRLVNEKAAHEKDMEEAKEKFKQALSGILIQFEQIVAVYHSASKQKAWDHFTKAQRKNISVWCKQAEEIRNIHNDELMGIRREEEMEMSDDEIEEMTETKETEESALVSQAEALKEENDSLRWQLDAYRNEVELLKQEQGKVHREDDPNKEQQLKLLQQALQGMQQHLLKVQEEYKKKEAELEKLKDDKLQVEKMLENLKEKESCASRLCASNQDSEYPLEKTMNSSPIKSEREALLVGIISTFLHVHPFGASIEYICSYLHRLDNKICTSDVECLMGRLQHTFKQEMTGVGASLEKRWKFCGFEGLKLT
smiles,measurement,setting,value
"Oc1ccc(C2=Cc3ccc(O)cc3OC2)cc1 [Dehydroequol, 4′,7-dihydroxyisoflav-3-ene]",concentration at which complete inhibition of topo II unknotting was evident,human topo II,100 µg/mL
same,effect on topo II catalytic activity compared with positive control,human topo II; VP-16 10 μg/ml as positive control,comparable to that of VP-16
same,IC50,"human topo II; densitometric measurements of the unknotted band, read-out: 50% inhibition (IC50) of topo II unknotting (converted)",~83.2 µM
same,inhibition of tNOX activity,tNOX,inhibit tNOX activity
same,IC50,leukaemic cell line HL60,1.5 µg/mL
same,IC50,breast cancer line MCF7,1.5 µg/mL
same,IC50,colon cancer line HT29,15 µg/mL
same,IC50,prostate cancer line PC3,2 µg/mL
same,inhibition of development of colonies (foci),[1],completely inhibited
same,viability of normal cells,normal NIH 3T3 cells,still maintaining the viability
same,cell death in proliferation assays,[2],did not cause cell death
same,inhibition at 10 µg/mL,"[2]; Homo sapiens, HUVEC, 10 μg/ml, five experiments",91%
same,inhibition of EC migration,[3]; 10 μg/ml,inhibits
same,viability of EC not in the vicinity of the wound,[3]; in the presence of De for 72 hours,remained viable
same,inhibition of capillary tube formation,[4],inhibits
same,level of expression of PECAM-1,PECAM-1,no changes
same,"SK inhibition compared with N,N-dimethylsphingosine (DMS)",Sphingosine Kinase (SK),equipotent
same,inhibition of SK activity generated by stimulation with IL-1,"Sphingosine Kinase (SK); dose-dependent, 18 hours pretreatment, IL-1β 100 units/ml 10 minutes",inhibits
same,inhibition of SK activity generated by stimulation with PMA,"Sphingosine Kinase (SK); dose-dependent, 18 hours pretreatment, PMA 100 ng/ml 10 minutes",inhibits
same,inhibition of SK activity generated by stimulation with TNF,"Sphingosine Kinase (SK); dose-dependent, 18 hours pretreatment, TNFα 1 ng/ml 10 minutes",inhibits
same,effect on basal levels of SK activity,Sphingosine Kinase (SK); unstimulated,no effect
